Results taken from patent US20240197687A1, “METHODS OF TREATING NEUROINFLAMMATION AND INHIBITING MONOAMINE OXIDASE-A AND RESTORING/UPREGULATING/INCREASING IL-13 AND AND PGC-1 BY ADMINISTERING ORAL DOSAGE FORM CONTAINING MICRONIZED AND NONMICRONIZED PARTICULATE METAXALONE, ALGINIC ACID AND PROPYLENE GLYCOL ALGINATE” (Primus Pharmaceuticals, Inc., priority 2022, published 2024).

Legend:
HMC3 microglial cells [1] = assay: ELISA of cytokines in cell culture supernatants of IL-1β-stimulated HMC3 cells; assay type: cell-based, Human; conditions: metaxalone 10, 20, 40 μg/mL, dose-dependent, p<0.0001 vs. IL-1β
Method: Human microglial HMC3 cell line (CRL-3304) was obtained from ATCC (American Type Culture Collection; Manassas, VA, USA). Cells were cultured in Eagle's minimum essential medium (EMEM) with a supplement of 10% fetal bovine serum (FBS) and 1% antibiotic mixture, and were incubated at 37° C. with 5% of CO2. Both medium and supplements were provided by ATCC (Manassas, VA, USA). Cells were seeded in 6-well plates at a density of 4×10^5 cells/well. A stock solution of metaxalone (Sigma Aldrich, Milan, Italy) was prepared by dissolving metaxalone in DMSO. Sixteen hours after plating (time 0), metaxalone was added at the doses of 10, 20, and 40 μg/mL 1 h following IL-1β stimulation (5 ng/mL; Sigma Aldrich, Milan, Italy). After 6 h cells were harvested for mRNA evaluation. In a separate set of plates, cells were incubated for 24 h before MTT assay to evaluate cell viability. The dose-response curve for IL-1β stimulation can be found at Supplemental FIG. S1. Measurements of Cytokines by Enzyme-Linked Immunosorbent Assay (ELISA). Tumor necrosis factor-alpha (TNF-α), interleukin-6 (IL-6) and interleukin-13 (IL-13) were measured in the cell culture supernatants. The products under investigation were measured using enzyme-linked immunosorbent assay (ELISA) kits (Abcam, Cambridge, UK), in agreement with the instructions reported by the manufacturer. All the samples were evaluated in duplicate and the obtained results were interpolated with the pertinent standard curves. To evaluate the sample, the means of the duplicated sample were used and expressed in pg/mL.

HMC3 microglial cells [2] = assay: Western blot protein levels in IL-1β-stimulated HMC3 cells; assay type: cell-based, Human; conditions: metaxalone 10, 20, 40 μg/mL, p<0.0001 vs. IL-1β
Method: Western Blot Analysis. HMC3 cells were homogenized in RIPA buffer (25 mM Tris/HCl, pH 7.4; 1.0 mM EGTA; and 1.0 mM EDTA) with 1% of NP40, 0.5% of phenyl methylsulfonyl fluoride (PMSF), aprotinin, and leupeptin and pepstatin (10 μg/mL each) to perform protein extraction. Lysates were centrifuged at 15,000×g for 15 min at 4° C. and the supernatant was collected for protein determination using a specific kit (Bio-Rad DC; Bio-Rad, Richmond, CA, USA). Samples were denatured in a reducing buffer (62 mM Tris pH 6.8, 10% glycerol, 2% SDS, 5% β-mercaptoethanol, and 0.003% bromophenol blue) and proteins were separated by electrophoresis on SDS polyacrylamide gels. Following electrophoresis, samples were transferred onto a PVDF membrane (Amersham, Little Chalfont, UK) in a transfer buffer (39 mM glycine, 48 mM Tris pH 8.3, and 20% methanol) at 200 mA for 1 h. The obtained membranes were incubated with 5% non-fat dry milk in TBS/0.1% Tween for 1 h at room temperature, washed 3 times in TBS/0.1% Tween, and incubated with primary antibodies to detect pNF-κB, PPARγ, PGC-1α (Cell Signaling, Danvers, MA, USA), NRF-2, and MAO-A (Abcam, Cambridge, UK), diluted in TBS/0.1% Tween overnight at 4° C. The day after, following 3 washes with TBS/0.1% Tween, membranes were incubated with secondary peroxidase-conjugated goat anti-mouse and anti-rabbit antibodies (KPL, Gaithersburg, MD, USA) for 1 h at room temperature. After washing, membranes were analyzed by the enhanced chemiluminescence system (LumiGlo reserve; Seracare, Milford, MA, USA). The protein signal was detected and quantified by scanning densitometry using a bio-image analysis system (C-DiGit, Li-cor, Lincoln, NE, USA). The results were expressed as relative integrated intensity and β-actin (Cell Signaling, Danvers, MA, USA) was used to confirm equal protein loading. (See, […]. et al. β-Caryophyllene Inhibits Cell Proliferation through a Direct Modulation of CB2 Receptors in Glioblastoma Cells. Cancers 2020, 12, 1038).

Q: What does the source list for `Cc1cc(C)cc(OCC2CNC(=O)O2)c1` (stereo not shown) [metaxalone, 5-[(3,5-dimethylphenoxy)methyl]-2-oxazolidinone]?
A: IL-6 protein levels (HMC3 microglial cells [1]; supernatant of IL-1β-stimulated HMC3 cells (IL-6 increased by IL-1β)): significantly reverted; IL-13 protein levels (HMC3 microglial cells [1]; supernatant of IL-1β-stimulated HMC3 cells (IL-13 decreased by IL-1β)): significantly reverted; TNF-α protein levels (HMC3 microglial cells [1]; supernatant of IL-1β-stimulated HMC3 cells (TNF-α increased by IL-1β)): significantly reverted; NRF-2 protein levels (HMC3 microglial cells [2]; dose-dependent): significantly increased; PGC-1α protein expression (HMC3 microglial cells [2]): stimulated; PPARγ protein expression (HMC3 microglial cells [2]): stimulated; p-NF-κB protein levels (HMC3 microglial cells [2]): blunted the increase
